From patent US11566260B2, “Potentiating agents for protecting plants from fungal infections” (UNIVERSITE D'ANGERS, priority 2012, dated 2023)

Legend:
Alternaria dauci = test: Growth inhibition of Alternaria dauci (protocol of Example 1), non-fungicidal amount; assay type: cell-based
Procedure: Suspensions of fungal conidia (starting material being for example 10^5 conidia/mL) are cultured in liquid medium, such as, for example, 300 μL of PBD medium, on microplate wells at 25° C. with shaking at 175 rpm for 5 minutes every 10 minutes. Increasing concentrations of the tested product are added on wells, and fungal growth is measured, during at least 5 hours, preferably at least 10, 20, 30 hours. Methods for measuring fungal growth are well known from the skilled artisan. […] Growth inhibition is measured by comparing the Area Under Curves (AUC) of treated samples and of untreated controls. […]
(§1) For inoculum preparation, conidia were collected from 8-days-old solid cultures by adding PD broth followed by gentle scraping of the agar plates. They were counted in a Thoma's chamber and the conidial suspensions were diluted to the concentration of 10^5 conidia/mL.
Growth was automatically recorded for at least 30 hours at 25° C. using a nephelometric reader (NEPHELOstar Galaxy, BMG Labtech, Germany) equipped with a 635-nm laser as radiation source. […] Each well was measured for 0.1 second with a laser beam of 2.5 mm.
The non-fungicidal amount of the sanguinarine contained in M. cordata extract against A. dauci strain was determined as 12 μM or 4 ppm according to the protocol described in Example 1. […]

Alternaria brassicicola [1] = test: Test A: growth of Alternaria brassicicola conidia followed by nephelometry, to find the non-fungicidal amount; assay type: cell-based
Procedure: (§2) Suspensions of fungal conidia (starting material being for example 10^5 conidia/mL) are cultured in liquid medium, such as, for example, 300 μL of PBD medium, on microplate wells at 25° C. with shaking at 175 rpm for 5 minutes every 10 minutes. Increasing concentrations of the tested product are added on wells, and fungal growth is measured, during at least 5 hours, preferably at least 10, 20, 30 hours. Methods for measuring fungal growth are well known from the skilled artisan. Examples of such methods include, but are not limited to, photometry, such as, for example, spectrophotometric methods; or nephelometry, such as, for example, laser nephelometry as described in Joubert et al (Biotechniques, 2010, 48:399-404). Growth inhibition is measured by comparing the Area Under Curves (AUC) of treated samples and of untreated controls. Test A is carried out in Example 1.
Alternaria brassicicola strains were cultivated at 24° C. on potato dextrose (PD) medium (Cat. No. 213200; Becton Dickinson, USA).
as §1
Growth was automatically recorded for at least 30 hours at 25° C. using a nephelometric reader (NEPHELOstar Galaxy, BMG Labtech, Germany) equipped with a 635-nm laser as radiation source. During incubation, the 96-well plates were subjected to shaking at 175 rpm for 5 minutes every 10 minutes. Measurements were done every hour with a gain value of 90 and a percentage of the maximum value of 20%. Each well was measured for 0.1 second with a laser beam of 2.5 mm.
Chelerythrin (25 μM or 50 μM, test wells) or 10 μL of DMSO (chelerythrin solvent, control wells) were added on wells, and growth curves were drawn (FIG. 1).
Camalexin (10, 20, 40 or 60 μM, test wells) or 10 μL of DMSO (chelerythrin solvent, control wells) were added on wells, and growth curves were drawn (FIG. 2).

[2] = tested on: BY4743 strain of Saccharomyces cerevisiae; test: Test D: growth of S. cerevisiae BY4743 in normal and high osmotic pressure conditions; assay type: cell-based
Procedure: Test D is based on the fact that the protein Pkc1 is implied in the CWI pathway. In a situation where the CWI pathway is impaired, growth of fungal cells is less affected by a high osmotic pressure. Consequently, in Test D, a S. cerevisiae strain is cultured in conditions of high osmotic pressure, in the presence or in absence of the tested compound. If said compound is a Pkc1 inhibitor, it will inhibit the growth of cells in normal osmotic pressure conditions, but not, or less, in high osmotic pressure conditions. Test D is carried out in Example 3.
The growth of a BY4743 strain of Saccharomyces cerevisiae on a liquid SD medium comprising increasing concentrations of chelerythrin (0, 10, 15, 20 or 25 μM) was monitored and compared to the growth of the same strain on a liquid SD medium containing 1M of sorbitol (high osmotic pressure conditions) in presence of increasing concentrations of chelerythrin.
Growth was measured by spectrometry (optic density: 600 nm) Inhibition of growth was assessed by comparison of the area under the curves.

[3] = tested on: BY4743 strain transformed with the empty pYES2-CT vector; test: Test C: growth of S. cerevisiae control strain (empty pYES2-CT vector); assay type: cell-based, Saccharomyces cerevisiae; conditions: for Area under the curve: OD 600 nm
Procedure: (§3) Test C is based on the essential role of Pkc1 in fungal cells: if its essential function is inhibited, the growth of the fungal cells will be affected. Therefore, in Test C, two different strains of S. cerevisiae are cultured in the presence of the tested compound: the first one is a wild-type strain, whereas the second overexpresses the fungal Pkc1 gene. If the tested compound is an inhibitor of the fungal Pkc1 protein, the growth of the wild-type strain will be inhibited, whereas the induction of the overexpression of the heterologous fungal Pkc1 gene will restore, at least partially, the growth rate. Test C is carried out in Example 3.
(§4) Growth of this strain was monitored in an inducing medium (GS uracil-free medium supplemented with galactose) in presence of increasing concentrations of chelerythrin (0, 25, 50 or 75 μM), and was compared with the growth of a control strain (BY4743 strain transformed with the empty pYES2-CT vector). Growth was measured by spectrometry (Optic density: 600 nm). Inhibition of growth was assessed by comparison of the area under the curves.

Alternaria brassicicola [4] = test: In vivo efficacy on cabbage leaves inoculated with Alternaria brassicicola; conditions: 25 μM chelerythrin in inoculum; intact or prewounded B. oleracea cv Bartolo leaves; 6 dpi; vs DMSO side
Procedure: Example 2 discloses a protocol for determining the in vivo efficacy of the composition of the invention, comprising a potentiating amount of chelerythrin (25 μM), as determined in Example 1.
5 μL drops of Alternaria brassicicola conidia suspension (10^5 to 10^3 conidia/mL) were inoculated on intact or prewounded (i.e wherein the synthesis of plant defense molecules such as Brassinin was naturally triggered by the aggression) leaves of B. oleracea cv Bartolo plants at stages 4-6 leaves per plant. Inocula were deposited on the left and right sides symmetrically from the central vein: inocula comprising 25 μM of chelerythrin were deposited on the right side, and inocula comprising DMSO were deposited on the left side. The plants were then maintained under saturing humidity (100% relative humidity).

Alternaria brassicicola [5] = test: Test B: potentiating effect with a plant defense molecule on growth of Alternaria brassicicola; assay type: cell-based
Procedure: as §2, with “Test B: • 1) Determining a non-fungicidal amount of said agent, preferably according to Test A; • 2) Determining a non-fungicidal amount of a plant defense molecule, preferably according to Test A; • 3) Measuring growth of fungal conidia in a medium comprising a combination of a non-fungicidal amount of the agent, as determined in step 1, and a non-fungicidal amount of the plant defense molecule, as determined in step 2. In one embodiment, the growth is measured as follows: Suspensions” for “Suspensions”, “material:” for “material being for example”, “Non-fungicidal” for “Increasing”, “agent and of the tested plant defense molecule” for “product”, “measured” for “measured,”, “controls.” for “controls. Test A is carried out in Example 1.”
The potentiating effect of chelerythrin is measured in a suspension of conidia treated with a plant defense molecule, camalexin, which is present at a non-fungicidal amount as determined hereinabove. Said non-fungicidal amount is consistent with the amount of camalexin produced by an infected plant organ.
Alternaria brassicicola growth was measured as described hereinabove.
A non-fungicidal amount of chelerythrin (as determined in Example 1a) and/or a non-fungicidal amount of camalexin (as determined in Example 1b) or 10 μL of DMSO are added per well, and growth curves were drawn (FIG. 3).
In the Table 5 below are shown compounds (column 1) having a potentiating effect of a plant defense molecule (column 2) for the inhibition of a pathogenic fungus (column 3). The type of the potentiating agent in this particular situation is given in column 4 (homologous or heterologous). Triads were identified according to Test B.

[6] = tested on: S. cerevisiae strain overexpressing Alternaria brassicicola Pkc1; test: Test C: growth of S. cerevisiae strain overexpressing Alternaria brassicicola Pkc1 (pYES-PKC); assay type: cell-based, Saccharomyces cerevisiae; conditions: pYES2-PKC; for Area under the curve: inducing medium, OD 600 nm
Procedure: as §3
Construction of a S. cerevisiae strain overexpressing Alternaria brassicicola Pkc1 The cDNA encoding the Pkc1 gene of Alternaria brassicicola (http://genome.jgi-psf.org/Altbr1/Altbr1.home.html; sequence ref: AB07449.1) was amplified by PCR and cloned into a pYES2-CT vector (Invitrogen, Paisley, UK). The resulting vector (pYES-PKC) was inserted in a BY4743 strain of Saccharomyces cerevisiae.
as §4

COc1cc(O)c2c(c1)C[C@@H](C)OC2=O [6-methoxymellein]
growth inhibition of Alternaria dauci (Alternaria dauci; 6-methoxymellein 100 μM): did not inhibit
growth inhibition of Alternaria dauci (Alternaria dauci; 6-methoxymellein 125 μM): did not inhibit

COc1ccc2c(c[n+](C)c3c4cc5c(cc4ccc23)OCO5)c1OC [Chelerythrin]
Alternaria brassicicola growth inhibition (Alternaria brassicicola [1]; 25 μM chelerythrin, nephelometry, at least 30 hours, 25° C., vs DMSO control): does not inhibit
non-fungicidal amount (Alternaria brassicicola [1]; Alternaria brassicicola, in vitro): 25 µM
Area under the curve ([2]; SD + Sorbitol (1M, high osmotic pressure), 10 μM chelerythrin): 5.2
Area under the curve ([2]; SD + Sorbitol (1M, high osmotic pressure), 15 μM chelerythrin): 5.0
Area under the curve ([2]; SD + Sorbitol (1M, high osmotic pressure), 20 μM chelerythrin): 2.0
Area under the curve ([2]; SD medium, 10 μM chelerythrin): 14.3
Area under the curve ([2]; SD medium, 15 μM chelerythrin): 11.8
Area under the curve ([2]; SD medium, 20 μM chelerythrin): 10.4
Area under the curve ([2]; SD medium, 25 μM chelerythrin): 8.1
inhibition at 10 µM ([2]; Saccharomyces cerevisiae, SD + Sorbitol (1M, high osmotic pressure), 10 μM chelerythrin): -3%
inhibition at 15 µM ([2]; Saccharomyces cerevisiae, SD + Sorbitol (1M, high osmotic pressure), 15 μM chelerythrin): 1%
inhibition at 20 µM ([2]; Saccharomyces cerevisiae, SD + Sorbitol (1M, high osmotic pressure), 20 μM chelerythrin): 0%
inhibition at 10 µM ([2]; Saccharomyces cerevisiae, SD medium, 10 μM chelerythrin): 10%
inhibition at 15 µM ([2]; Saccharomyces cerevisiae, SD medium, 15 μM chelerythrin): 26%
inhibition at 20 µM ([2]; Saccharomyces cerevisiae, SD medium, 20 μM chelerythrin): 35%
inhibition at 25 µM ([2]; Saccharomyces cerevisiae, SD medium, 25 μM chelerythrin): 49%
Area under the curve ([3]; 25 μM chelerythrin): 8.6
Area under the curve ([3]; 50 μM chelerythrin): 3.2
Area under the curve ([3]; 75 μM chelerythrin): 2.5
inhibition at 25 µM ([3]; Saccharomyces cerevisiae, 25 μM chelerythrin): 43%
inhibition at 50 µM ([3]; Saccharomyces cerevisiae, 50 μM chelerythrin): 79%
inhibition at 75 µM ([3]; Saccharomyces cerevisiae, 75 μM chelerythrin): 84%
fungal infection of cabbage leafs (Alternaria brassicicola [4]): limits in vivo the fungal infection
inhibition of Alternaria brassicicola growth by the combination (Alternaria brassicicola [5]; 25 μM chelerythrin combined with 10 μM camalexin, both non-fungicidal amounts): drastic inhibition
Type of potentiating agent (compound having a potentiating effect of the plant defense molecule) (Alternaria brassicicola [5]; plant defense molecule Brassinin, Alternaria brassicicola): Homologous
Type of potentiating agent (compound having a potentiating effect of the plant defense molecule) (Alternaria brassicicola [5]; plant defense molecule Camalexin, Alternaria brassicicola): Homologous
potentiating amount (Alternaria brassicicola [5]; with non-fungicidal amount of camalexin, Alternaria brassicicola): 25 µM
inhibition at 25 µM ([6]; 25 μM chelerythrin): 15%
Area under the curve ([6]; 25 μM chelerythrin): 10.7
inhibition at 50 µM ([6]; 50 μM chelerythrin): 25%
Area under the curve ([6]; 50 μM chelerythrin): 9.4
inhibition at 75 µM ([6]; 75 μM chelerythrin): 30%
Area under the curve ([6]; 75 μM chelerythrin): 8.8
